Numbers after ± are expanded uncertainties.
Conditions: Liquid; Resistive pulse heating

Compared with `CCc1ccc(C)nc1` [3-ethyl-6-methylpyridine], `CCc1cccnc1` [3-ethylpyridine] is higher in Critical pressure: 3250 ± 100 kPa for the first, 4190 ± 130 kPa for the second.

Compared with `CCc1ccccn1` [2-ethylpyridine], `CCc1ccncc1` [γ-ethylpyridine] is higher in Critical pressure: 3810 ± 110 kPa for the first, 4190 ± 130 kPa for the second.

`CCc1ccc(C)nc1` [3-ethyl-6-methylpyridine] and `CCc1cccnc1` [3-ethylpyridine] are within error of each other in Critical temperature: 656 ± 7 K for the first, 651 ± 7 K for the second.

First: CCc1ccccn1 [2-ethylpyridine]
Second: CCc1ccncc1 [γ-ethylpyridine]
The Critical temperature of the first is lower: 628 ± 6 K for the first, 653 ± 7 K for the second.

— the NIST ThermoML archive (doi:10.1016/j.fluid.2017.05.010)
